{"source": "patent US6740662B1", "about": "“Naphthyridine derivatives” (Yamanouchi Pharmaceutical Co., Ltd., priority 1999, dated 2004)", "key": {"[1]": {"system": "P450 drug metabolizing enzyme present in the liver microsome", "assay": "In vitro drug metabolism test using liver microsome", "format": "in vitro ADME", "settings": "human and rat liver microsome, test compound 20 ng/ml, 37° C., 10, 20 and 30 minutes, residual ratio", "description": "1) Human and rat liver microsome suspension (human microsome: Xenotech, rat microsome: Charles River) was diluted with 100 mM Na-K phosphate buffer (pH 7.4) to a protein concentration of 0.5 mg/ml. To a 100 μl portion of this suspension were added 2 μl of a test compound solution (a 10 μg/ml acetonitrile solution), 500 μl of 200 mM Na-K phosphate buffer (pH 7.4), 50 μl of 1 mM EDTA-NaOH (pH 7.4) and 200 μl of purified water, thereby preparing a substrate solution (concentration in the reaction solution: liver microsome (as the protein content) 0.05 mg/ml, test compound 20 ng/ml, 100 mM Na-K phosphate buffer, 0.1 mM EDTA-NaOH).\n2) An NADPH production system was prepared by mixing 42 mg of NADP, 5 ml of 100 mM […] (G6P) and 5 ml of 100 mM MgCl2, and adding 57 μl of G6P dehydrogenase (about 1750 U/5 mg/ml) to the mixture. This was heated at 37° C. for 5 minutes and then ice-cooled until its use.\n3) A 900 μl portion of the substrate solution was pre-incubated at 37° C. for 5 minutes, and then 100 μl of the NADPH production system was added thereto, following by reaction at 37° C. for 10, 20 and 30 minutes. After termination of the reaction by adding 2 ml of ethyl acetate, the whole was ice-cooled. In this connection, a control sample was prepared by adding 100 μl of the NADPH production system after adding 2 ml of ethyl acetate (0 minute reaction).\n4) To the reaction solution was added 100 μl of an internal standard substance having a predetermined concentration (an acetonitrile solution), 1 ml of 0.5 M phosphoric acid and 2 ml of ethyl acetate, followed by shaking for 10 minutes. After 10 minutes of centrifugation at 2,500 rpm, the ethyl acetate layer was separated and evaporated to dryness, and the residue was dissolved in 100 μl of an HPLC mobile phase solvent. The test compound was eluted after about 12 minutes, and the internal standard substance after about 16 minutes, under the following conditions. (HPLC measuring conditions mobile phase: acetonitrile/20 mM ammonium acetate=2:3 (v/v), column: Discovery RP Amide C16, 4.6×35 mm (SUPELCO), flow rate: 0.8 ml/min., detection: UV 286 nm)\n5) A ratio (residual ratio) of the peak height ratio after 10, 20 or 30 minutes of the reaction to the peak height ratio of each test compound in the control (peak height ratio to the internal standard substance) was calculated."}, "[2]": {"assay": "Oral absorbability and pharmacokinetic profile evaluation test using type IV PDE inhibitory activity as the index", "format": "in vivo", "settings": "orally administered to male Fisher rat at 3 mg/kg; plasma type IV PDE inhibitory activity as index; in comparison with a comparative compound", "description": "Test Example 3. Oral absorbability and pharmacokinetic profile evaluation test using type IV PDE inhibitory activity as the index\nThe following assay was carried out in order to evaluate oral absorbability and pharmacokinetic profiles of the type IV PDE-inhibiting compounds of the invention.\n1) Each test compound suspended in purified water containing 0.5% methyl cellulose was orally administered to a seven-week-old male Fisher rat at a dose of 3 mg/kg. In the control group, a solvent (0.5% methyl cellulose in purified water, 3 ml/kg) was administered in the same manner. After the oral administration, blood samples were periodically collected in the presence of heparin from the caudal vein of each rat under ether anesthesia, and plasma was prepared in the usual way.\n2) The plasma prepared from each rat administered with the test compound or solvent was added to the type IV PDE measuring system shown in the above Test Example 1 so as to be a final concentration of 0.1%, and the type IV PDE inhibitory activity was measured."}}}
{"smiles": "CCn1c(=O)c(CCC(=O)O)c(-c2cccc(C)c2)c2ccc(C)nc21", "note": "[Example 77, 3-[1-ethyl-7-methyl-4-(3-methylphenyl)-2-oxo-1,2-dihydro-1,8-naphthyridin-3-yl]propanoic acid]", "values": [{"measurement": "metabolism by the P450 drug metabolizing enzyme present in the liver microsome", "setting": "[1]", "result": "hardly metabolized"}, {"measurement": "melting point", "result": "174 to 175", "unit": "°C"}, {"measurement": "oral absorbability and metabolic stability", "setting": "[2]", "result": "good oral absorbability and metabolic stability"}]}
{"smiles": "CCn1c(=O)c(CCc2nnn[nH]2)c(C2CCCCC2)c2ccc(C)nc21", "note": "[Example 79]", "values": [{"measurement": "metabolism by the P450 drug metabolizing enzyme present in the liver microsome", "setting": "[1]", "result": "hardly metabolized"}, {"measurement": "melting point", "result": "207 to 209", "unit": "°C"}, {"measurement": "oral absorbability and metabolic stability", "setting": "[2]", "result": "good oral absorbability and metabolic stability"}]}
